Test results: patent US20220033405A1, “PHARMACEUTICAL COMPOSITION FOR PREVENTING OR TREATING CANCER CONTAINING PLK1 INHIBITOR AS ACTIVE INGREDIENT” (NATIONAL CANCER CENTER, priority 2018, published 2022)
Each block holds one compound with its values, some of them ahead of it.

Key:
[1] = test system: HepG2 human liver cancer cells; assay: Reactivity of M2 variants in HepG2; format: cell-based
Protocol: (§1) To examine the ability of the compound to inhibit the growth of the breast cancer cell line, the compounds was treated at each indicated μM concentration 1 and 3 days after cell attachment, and the control was treated with a 0.1% solvent (DMSO). After another two days, the cell lines that were attached to the culture plate and grew were rinsed with 1×PBS and treated with 4% paraformaldehyde at room temperature for 10 minutes to fix the cells. Then, after cells were rinsed twice with PBS, the fixed cells were treated with a 0.5% Triton X-100 solution and reacted at room temperature for 15 minutes, rinsed another three times with PBS, and then treated with a DAPI reagent at 0.5 μg/ml, and reacted at 37° C. for 10 minutes to stain the cell nuclei. After the cells were additionally rinsed once with PBS, cells stained with DAPI were photographed by Cytation 3, and the resulting images were analyzed with Gen5 software (Biotek, USA). Meanwhile, cells that grew in a floating manner without being attached to the culture plate were treated with a 4% paraformaldehyde solution, reacted at room temperature for 10 minutes to fix the cells, and then photographed in a bright field by Cytation3, and the resulting images were analyzed by Gen5 software (Biotek, USA).
(§2) To analyze the ability to inhibit the growth of liver cancer cell lines, 6.6×10^3 HepG2 cells per well, 1×10^3 cells of each of Hep3B, SNU-475, and SNU-449 per well, and 2×10^3 SNU-387 cells per well were aliquoted in a 96-well plate, cultured in the same manner as described above, treated with Compound 2 (M2), Compound 3 (M4), Compound 4 (M21), Compound 5 (M23), and Compound 6 (M25), and then the ability to inhibit the growth of cells was analyzed.

[2] = test system: SNU449 human liver cancer cells; assay: Reactivity of M2 variants in SNU449; format: cell-based
Protocol: as §1, §2

[3] = test system: JIMT1 human breast cancer cells; assay: Cancer cell growth inhibition, M2 variants in JIMT1; format: cell-based
Protocol: as §1

[4] = test system: PLK1; assay: PLK1 position in the cell (r-tubulin, PLK1, DAPI staining); format: cell-based
[5] = test system: HepG2 cell; assay: Apoptosis by annexin V-FITC / PI flow cytometry; format: cell-based; conditions: HepG2, 3 days; M2 20 or 100 μM; BI2536 20 or 100 nM
Protocol: To analyze the pattern of apoptosis by exposure to M2, HepG2 cell, a hepatocellular carcinoma cell line, were treated with 20 or 100 μM M2 and 20 or 100 nM BI2536 for 3 days. The apoptosis was detected by annexin V-fluorescein isothiocyanate (annexin V-FITC) and propidium iodide (PI) staining of necrotic and apoptosis cells. First, cells were harvested and washed once with PBS. The cells were then resuspended in a 100 μl binding buffer containing 4 μl of Annexin V (BD, 51-65874X) and PI (BD, 51-66211E). The cells were stained at 37° C. for 15 minutes in the dark and then analyzed using FACSan (BD, San Jose, Calif.). Data was analyzed using CELLQuest software (BD).

[6] = test system: SNU-449; assay: Cell cycle by flow cytometry, phospho-histone H3 (Ser10) staining; format: cell-based; conditions: M2 20, 40, 80 μM, BI2536 20 nM
Protocol: Flow cytometry equipment was used to confirm the effect on the cell cycle in the case of treatment with Compound 2 (M2). SNU-449, which is one of the liver cancer cell lines, were treated with Compound 2 (M2) at each of concentrations of 20, 40, and 80 μM after 1 day and 3 days, and were harvested after another 2 days.
Furthermore, it was intended to more specifically stain a cell population that stopped in the metaphase of cell division using a phospho-histone H3 (Ser10) antibody capable of specifically staining only the cells that stopped in the metaphase of cell division. As a positive control, cells were treated with BI2536 known as a PLK1 kinase inhibitor at 20 nM and used to observe cells in the metaphase of cell division and an increase in the G2/M phase.

[7] = test system: HepG2 cells; assay: Cell viability after treatment (Hoechst 33342); format: cell-based; conditions: HepG2, various concentrations, two treatments 48 hours apart
Protocol: HepG2 cells, a hepatocellular carcinoma cell line, were plated with 4 to 6 replications at each hit compound concentration in a 96-well microtiter plate supplemented with a culture medium. The hit compound dissolved in DMSO was added the next day according to the design of experiments, and the number of seeded cells was determined by the cell density reaching 80% on the final day of the protocol treated as a cell control. After 24 hours of cell seeding, cells were treated with hit compounds (M2 and BI2536) at various concentrations, and 48 hours after primary treatment, the medium was aspirated and then secondary treatment was performed. After 48 hours, cell nuclei were visualized by 2.5 μM Hoechst 33342 staining at 37° C. for 30 minutes, then the medium was aspirated and washed with a fresh medium. The plate was read using Cytation™ 3 (BioTek, USA), the cell viability was analyzed, and the results were presented as a relative percentage of viable cells after treatment with the hit compound compared to the control treatment.

[8] = test system: HepG2 orthotopic xenograft; assay: Liver cancer orthotopic xenograft model (HepG2), 19 injections; format: in vivo, BalB/c nude mice; conditions: M2 9.1 mg/kg, BI2536 1 mg/kg, 19 injections
Protocol: 5×10^6 HepG2 cells, which are a hepatocellular carcinoma cell line, were injected into the back skin of BalB/c nude mice, and when a sufficient cancer tissue was formed about 3 weeks later, the tissue was removed, uniformly cut into 1 mm^3, and transplanted into the right median lobe of the liver by excising the abdomen within 1 cm.
The doses of 9.1 mg/kg of M2 and 1 mg/kg of BI2536 were selected based on the present inventor's previous in vitro experiments on HCC cells. Administration began 7 days after cell injection, and an equivalent amount of DMSO for the highest concentration of drug was used as a solvent control for each experiment. Each drug was injected a total of 19 injections based on 5 times/week.

[9] = biological target: T1, PBD domain of PLK1 (PLK1-PBD protein) (Homo sapiens, UniProt P53350); assay: Compound screening by fluorescence polarization (FP) competition assay; format: binding; conditions: FITC-labeled 1010pT peptide + PLK1-PBD; about 300 with no compound added
T1 construct: a 4 μM PLK1-PBD protein
T1 sequence (P53350 367-603 limits assumed): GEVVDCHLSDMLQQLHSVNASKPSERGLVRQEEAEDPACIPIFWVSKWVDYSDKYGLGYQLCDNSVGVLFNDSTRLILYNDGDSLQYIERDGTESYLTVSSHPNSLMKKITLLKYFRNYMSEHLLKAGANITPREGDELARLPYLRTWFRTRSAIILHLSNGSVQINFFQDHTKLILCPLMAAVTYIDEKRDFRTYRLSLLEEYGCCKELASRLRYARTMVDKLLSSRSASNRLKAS
Protocol: For this purpose, a fluorescence polarization competition assay was performed by mixing a conjugate of a PBD site of PLK1 purified in a solution and a peptide (FITC-labeled 1010pT (GVLSpTLI-NH2)) to which FITC fluorescence was bound with a low molecular weight compound to be screened.
More specifically, after a reaction was performed at room temperature for 30 minutes by preparing a 4 μM PLK1-PBD protein, a 10 nM peptide (FITC-labeled 1010pT (GVLSpTLI-NH2)), and a 20 μl candidate compound at each concentration and putting the respective components into a black 96-well plate for mixing, fluorescence polarization (mp) values were measured using Infinite F200 Pro (TECAN Group Ltd, Switzerland). An average value was derived by performing this experiment three times by the same method, and the excitation wavelength and the emission wavelength were set at 485 nm and 535 nm, respectively.

[10] = biological target: T2, PBD of PLK1 (GST-tagged target protein) (Homo sapiens, UniProt P53350); assay: IC50 measurement by FP assay; format: binding; conditions: FITC-labeled 1010pT peptide
T2 construct: made in house
T2 sequence (P53350 367-603 limits assumed): as above
Protocol: The IC50 of the compound was intended to be analyzed by performing the FP assay shown in Example 1 on the compound and the hit compound discovered by the primary and secondary compound screening and various derivatives thereof. For this purpose, a target protein to which GST-tag was bound was isolated using a GST resin, and 15 mg/ml of the pure target protein to which GST-tag was bound was obtained by finally performing gel filtration. The target protein was diluted with a reaction buffer and prepared at each of concentrations of 12 uM, 3 uM, and 1.5 uM, and an FITC-bound peptide (FITC-labeled 1010pT (GVLS-pT-LI-NH2)) stored in a brown tube was diluted with a reaction buffer and prepared at a concentration of 30 nM. Further, the compound at a concentration of 100 mM was diluted with a reaction buffer and prepared at each of 160.0 uM, 80.0 uM, 40.0 uM, 20.0 uM, 10.0 uM, 5.0 uM, 2.5 uM, 1.25 uM, 0.625 uM, 0.3125 uM, 0.15625 uM, and 0.0 uM. […] When the reaction was completed, the fluorescence polarization value was measured using Infinite F200 Pro (TECAN Group Ltd, Switzerland) after setting the excitation wavelength and the emission wavelength to 485 nm and 535 nm, respectively, and setting the G-Factor to 1.077. […] Binding curves were analyzed using Graphpad Prism (GraphPad Software, San Diego, Calif., USA).

[11] = test system: MDA-MB-468 cells; assay: Cancer cell growth inhibition (DAPI nuclei count), breast cancer line; format: cell-based; conditions: treated 1 and 3 days after attachment
Protocol: For this purpose, experiments were performed using liver cancer, breast cancer, hematologic cancer, cervical cancer, and prostate cancer cell lines, a murine liver cancer cell line HEPA 1-6 and a breast cancer cell line MDA-MB-468 were cultured in a DMEM medium supplemented with 10% fetal bovine serum (FBS) and 1% penicillin/streptomycin, the other cell lines were cultured in a RPMI1640 medium supplemented with the same additives, and the cell lines were used in the experiment.
To examine the ability of the compound to inhibit the growth of the breast cancer cell line, the compounds was treated at each indicated μM concentration 1 and 3 days after cell attachment, and the control was treated with a 0.1% solvent (DMSO). […] After the cells were additionally rinsed once with PBS, cells stained with DAPI were photographed by Cytation 3, and the resulting images were analyzed with Gen5 software (Biotek, USA). Meanwhile, cells that grew in a floating manner without being attached to the culture plate were treated with a 4% paraformaldehyde solution, reacted at room temperature for 10 minutes to fix the cells, and then photographed in a bright field by Cytation3, and the resulting images were analyzed by Gen5 software (Biotek, USA). […]

Structure (SMILES): Cc1cc2nc3c(=O)[nH]c(=O)nc-3n(C)c2cc1C [Compound 7, 7,8,10-trimethyl-2H,3H,4H,10H-benzo[g]pteridine-2,4-dione]
areas of liver cancer cells [1]: remarkably reduced in a dose-dependent manner
number of cancer cells [2]: the number of cancer cells was remarkably reduced in a dose-dependent manner
number of cancer cells [3]: remarkably reduced the number of cancer cells in a dose-dependent manner

Structure (SMILES): Cc1cccc(OCCn2c3nc(=O)[nH]c(=O)c-3nc3cc(C(F)(F)F)ccc32)c1 [Compound 11, 10-[2-(3-methylphenoxy)ethyl]-7-(trifluoromethyl)-2H,3H,4H,10H-benzo[g]pteridine-2,4-dione]
number of cancer cells [2]: a relatively remarkable cancer cell reduction effect did not appear

Structure (SMILES): CC[C@@H]1C(=O)N(C)c2cnc(Nc3ccc(C(=O)NC4CCN(C)CC4)cc3OC)nc2N1C1CCCC1 [BI2536, reference compound]
chromosome segregation [4]: abnormal chromosome segregation was observed
position of PLK1 ([4]; middle stage of cell division): did not seem to make a relatively large difference
r-tubulin located in the centrosome (staining / position) ([4]; middle stage of cell division): did not seem to make a relatively large difference
apoptosis cells [5]: apoptosis cells were increased
apoptosis with increasing dose [5]: apoptosis was increased in a dose-dependent manner
proportion of polyploid cells [6]: remarkably increased
proportion of phospho-histone H3-positive cells ([6]; compared to CT): increase in the proportion
cell viability [7]: the relatively less the cell viability became
progression of the HCC xenograft calculated by the growth inhibition index [8]: suppressed the progression of the HCC xenograft
growth of tumor cells (macroscopic morphology, MRI) ([8]; 5 times/week): the growth of tumor cells was suppressed

Structure (SMILES): Cc1cc2nc3c(=O)[nH]c(=O)nc-3n(C[C@H](O)[C@H](O)[C@H](O)CO)c2cc1C [Compound 12, 7,8-Dimethyl-10-[(2S,3S,4R)-2,3,4,5-tetrahydroxypentyl]benzo[g]pteridine-2,4-dione]
areas of liver cancer cells [1]: relatively low reactivity appeared
number of cancer cells [2]: a relatively remarkable cancer cell reduction effect did not appear

Structure (SMILES): Cc1cc2nc3c(=O)[nH]c(=O)nc-3n(C)c2cc1C=O [Compound 8, 7,10-dimethyl-2,4-dioxo-2H,3H,4H,10H-benzo[g]pteridine-8-carbaldehyde]
number of cancer cells [2]: the number of cancer cells was remarkably reduced in a dose-dependent manner
number of cancer cells [3]: remarkably reduced the number of cancer cells in a dose-dependent manner

fluorescence polarization value [9]: 180 mp
IC50 [10]: ~25 µM
Structure (SMILES): O=C(O)c1ccc2[nH]c3nc(=O)[nH]c(=O)c-3nc2c1 [Compound 1, 2,4-Dioxo-1,2,3,4-tetrahydrobenzo[g]pteridine-7-carboxylic acid]

Structure (SMILES): Cc1cc2nc3c(=O)[nH]c(=O)nc-3n(CCC#N)c2cc1C [Compound 10, 3-{7,8-dimethyl-2,4-dioxo-2H,3H,4H,10H-benzo[g]pteridin-10-yl}propanenitrile]
number of cancer cells [2]: a relatively remarkable cancer cell reduction effect did not appear

Structure (SMILES): O=c1nc2[nH]c3cc(Cl)ccc3nc-2c(=O)[nH]1 [Compound 3, 8-chloro-1H,2H,3H,4H-benzo[g]pteridine-2,4-dione]
number of cells [11]: the number of cells was remarkably reduced in proportion to the treatment concentration
